What all share (assay type): cell-based, human
In test [1] the test system is CD4^+ T cells isolated from 136TIL. As to the kind of experiment: T-cell reactivity assay (IFN-γ ELISA): TMGs/minigenes in 293IMDR1/DP4 and 293IMDR11/DP4 cells. Conditions: 293IMDR1/DP4 cells. From the text: Using several different approaches (293-engineered APCs and B cells, as well as different libraries) and tumor-reactive T cells (TIL lines and clones), 6 MHC-II antigens (4 mutation-derived neoantigens and 2 derived from alternative ORF and 3′ UTR region) were identified and 3 MHC-I neoantigens in 135 mel tumor cells. It appears that the number of neoantigens recognized by T cells is rather limited, even though there are 232 somatic mutations (Table 3). To extend the findings, exome sequencing of genomic DNAs isolated from the second patient tumor (136 mel) and 136TIL cells (as a control) was performed and identified 348 somatic mutations that were unique to 136 tumor cells (FIG. 8A) (Table 4). A library was designed and constructed containing 35 TMGs (10 mutations in each TMG) in pTSX targeting expression vector based on somatic mutations. […] By contrast, no appreciable T cell activity was observed against the corresponding WT counterparts (FIG. 8C). Because ANKIB1 can be presented by both 293IMDR1/DP4 and 293IMDR11/DP4 cells (FIG. 8B), it is likely that ANKIB1 is presented by HLA-DP4 molecules for T cell recognition.
(§1) 96-well tissue culture plates were coated with phosphate-buffered saline (PBS, GenDEPOT) containing 50 μg/ml poly-L-lysine (Millipore Sigma) at 37° C. 10 min later, the plates were rinsed twice with PBS. Tumor cells or 293-APCs were seeded at 5×10^4/well in the 96-well plate and cultured at 37° C., 5% CO2 for at least 4 h. For plasmid transfection, 250 ng of plasmid DNA were transfected into 293-APCs per well with 0.5 μl of Lipofectamine 2000 (Thermo Fisher Scientific) according to the manufacturer's instructions and incubated at 37° C., in 5% CO2 overnight. For peptide presentation, synthesized peptides (GeneScript) were added to each well at different final concentrations from 10^2 to 10^−4 μM and incubated at 37° C., 5% CO2. The cells transfected with plasmids or pulsed with peptides were washed with TCM twice, and then cocultured with T cells (1×10^5/well). After overnight culture, 50 μl of supernatant was collected for measuring cytokine release with an ELISA assay.
96-well microplate (Greiner Bio-one) was coated with 50 μl of PBS containing anti-human IFN-γ (Thermo Fisher Scientific, primary antibody, 1 μg/ml) per well and incubated at 4° C. overnight. […] The plate was read at OD450 nm. The concentration of IFN-γ was calculated by standard reading.
The screening of antigen-specific T cells against TMGs were performed as described in T-cell reactivity assay above. […] The transfected cells were cocultured with tumor-reactive T cells overnight and the IFN-γ release in the supernatant in each well was determined by ELISA on the second day.

In the next test the test system is T-cell clones of 135TIL. As to the kind of experiment: IFN-γ ELISA with tumor-reactive T-cell clones of 135TIL. Conditions: for percentage of CD8^+ tumor-reactive T-cell clones recognizing the neoantigen: 40 clones; for number of CD8^+ tumor-reactive T-cell clones recognizing the neoantigen: of 40 clones.
From the text: Thus, immunogenic antigens can be generated from various sources or mechanisms [such as alternative ORFs, noncoding regions (3′ and 5′ UTRs, introns, noncoding RNA)]. […] All other tumor-reactive CD4^+ T-cell clones and CD8^+ T-cell clones recognized the mutation-derived neoantigens. […] To identify these two antigens recognized by these two CD4^+ T-cell clones, an Ii-fusion cDNA library derived from 135 mel tumor cells was constructed using experimental procedures. The Ii-fusion cDNA library pools (approximately 100 cDNA clones per pool) were transfected into 293IMDR3/DP4 or 293IMDR4/DP4 cells, followed by co-culturing with CD4^+ T-cell clones (135-1C1 or 135-1E1). After 2×10^5 cDNA clones, positive cDNA library pools that stimulate two T-cell clones, respectively, were identified based on IFN-γ release by ELISA (FIG. 6B). The positive pools were then transformed into Stbl3™ Escherichia coli, and single bacteria colonies were picked for plasmid DNA isolation. The screening assays were repeated in the same APCs transfected with the single cDNA-containing plasmids, and identified three clones that were able to stimulate 135-1C1 T cells, and two clones that reacted with 135-1E1 T cells (FIG. 6C). […] The 135-1E1 T cell-reactive cDNA clones encoded the product translated from an alternative reading frame of CTAG2 (LAGE1b) (FIG. 6C and FIG. 7A). […] LAGE1 is a cancer-testis antigen, with over 80% amino acid sequence identical to NY-ESO-1 protein, which is the most immunogenic tumor antigen identified to date. To define the T cell epitopes, wee generated a series of deletions and truncations of 3′ UTR region of ADIPOR2 gene, and narrowed down T cell epitope to a 26 aa peptide-coding sequence that stimulate 135-1C1 T cell response (FIG. 7D). Using similar approach, T cell epitopes were narrowed down to a 69 aa peptide-coding sequence of the LAGE1b alternative ORF2 for 135-1E1 T-cell recognition (FIG. 7E).
Using systemic and multiple approaches, 8 cancer neoantigens were identified in 135 mel and 7 neoantigens in 136 mel. To understand the potential mechanisms that restrain the number of neoantigens that could induce T cell response, it was asked whether these neoantigens were equally recognized by T cells.
T-cell cloning and expansion were performed. Briefly, T-cell clones from 135TILs were generated by a limited dilution (0.3 cell/well) in 96-well plates. Allogeneic PBMCs from normal donors were irradiated (60 Gy) and then seeded as feeder cells (7×10^4/well) in TCM containing 35 ng/ml OKT3 (anti-hCD3 antibody) (R&D Systems) and 35 ng/ml anti-hCD28 antibody (R&D Systems). On day 1, recombinant IL-2 was added to the final concentration of 300 IU/ml. On day 5, half of the culture medium was replaced with fresh TCM containing recombinant IL-2, and then the medium was changed every other day or when the medium color turned yellow. On day 14, T-cell clones were harvested, counted, tested for tumor reactivity. Tumor reactive T-cell clones were further expanded.
as §1, with “assay. […]” for “assay.”
(In general: An ELISA detects its analyte on a solid surface through an enzyme-linked reagent.)

In the next test the test system is 135TIL. As to the kind of experiment: Intracellular staining of IFN-γ after neoantigen peptide stimulation, 135TIL. Particulars: intracellular cytokine staining. Here is the method: (§2) T cells were stimulated by various in vitro methods, such as tumor cells, peptides or DNA encoding neoantigens, etc. and induced to release cytokines. Stimulated T cells were resuspended in 100 μl of Cytofix/Cytoperm solution (BD Biosciences) per well for microwell plates (or 250 μl for tubes) and incubated for 20 min at 4° C. for cell fixation. Fixed cells were permeabilized by washing twice in 1× Perm/Wash buffer (BD Biosciences). Then the fixed/permeabilized cells were thoroughly resuspended in 50 μl of 1× Perm/Wash buffer containing 1 μl of phycoerythrin (PE)-conjugated IFN-γ antibody (Thermo Fisher Scientific) and incubate at 4° C. for 30 min in the dark. After that the cells were washed twice with 1× Perm/Wash buffer and ready for flow cytometric analysis.

The next test relates to 136TIL. As to the kind of experiment: Intracellular staining of IFN-γ after neoantigen peptide stimulation, 136TIL. Particulars: for neoantigen-specific CD4^+ T cells in the total T cell population: fibroblasts loaded with peptide.
From the text: Among them, MAPK9 and ANKIB1 neoantigen-specific CD4^+ T cells accounted for 14.3% and 5.2% in the total T cell population, which accounted for 58% and 21% in the total tumor-reactive CD4^+ T cell population, respectively (FIG. 11B). By contrast, other neoantigen-specific CD4^+ T cells accounted for only a small percentage of T cells in the total T cell population (FIG. 11A). Since HHAT is only one MHC-I neoantigen, it was shown that HHAT neoantigen-specific CD8^+ T cells accounted for 10.6% in the total T cell population when stimulation with HHAT peptide (FIG. 11A), which accounted for 73% in the total tumor-reactive CD8^+ T cell population (FIG. 11B).
as §2

Test [2] has as its system CD4^+136-C13 and 136-C22 T cell clones. The test can be described thus: TMG/minigene screening with T cell clones of 136TIL. Particulars: 293IMDR1/DP4 cells. Here is the method: As shown in 135 mel, ADIPOR2 and LAGE1b were identified as tumor antigens recognized by T cell clones that were in relatively low abundance in the bulk TIL population. Thus, T cell clones generated from 136TILs were tested for their ability to recognize the newly identified as well as unknown neoantigens. 293IMDR1/DP4 and 293IMDR11/DP4 cells were transfected with 35 TMGs, respectively, followed by co-culturing with T cells clones for overnight.

In the case of “SMPLWDFQGSTMRTSQYVRLTPDER [LMAN2, MHC-II neoantigen of patient #136]”, the “T cell recognition, IFN-γ release by CD4^+ 136TIL” value (from here on “T cell recognition, IFN-γ release”) in test [1] is “capable of stimulating CD4^+ T cells for IFN-γ release”.

For the sequence “GSGEKVAGRVIVKVCEVTRVKAVRI [TXNIP, MHC-I neoantigen of patient #135]”, in the test on T-cell clones of 135TIL, the “percentage of CD8^+ tumor-reactive T-cell clones recognizing the neoantigen” value was determined as 20% and the “number of CD8^+ tumor-reactive T-cell clones recognizing the neoantigen” value was determined as 8. The “CD8^+ T cells recognizing the neoantigen in the total T cell population” value in the test on 135TIL is 2.95%.

Regarding “YPGIKFEELFPDCIFPSESERDKIK [MAPK9, MHC-II neoantigen of patient #136]”, the “T cell recognition, IFN-γ release” value in test [1] is “capable of stimulating CD4^+ T cells for IFN-γ release”. In the test with 136TIL, the “share in the total tumor-reactive CD4^+ T cell population” value is 58% and the “neoantigen-specific CD4^+ T cells in the total T cell population” value was 14.3%.

In the case of “KDAARPAYWVPDYEILHCHNCRKEF [ZFYVE1, MHC-II neoantigen of patient #136]”, the “T cell recognition, IFN-γ release” value in test [1] was “capable of stimulating CD4^+ T cells for IFN-γ release”.

As for “LLLAGYLAQQYLLLPTPKVIGIDLG [HSPA13, MHC-II neoantigen of patient #136 recognized by clone C22]”, in test [2], the “recognition by T cell clones 136-C13 (TMG13) and 136-C22 (TMG8)” value is reported as “MHC-II neoantigens”.

With “PFYLGHTIKSGDFEYVGMEGGIVLS [C1GALT1C1, MHC-II neoantigen of patient #136 recognized by clone C13]”, the “recognition by T cell clones 136-C13 (TMG13) and 136-C22 (TMG8)” value in test [2] is on record as “MHC-II neoantigens”.

With “RLKASLDRPFTNSESAFYSIVGLSS [RPN2, MHC-I neoantigen of patient #135]”, in the test with T-cell clones of 135TIL, the “percentage of CD8^+ tumor-reactive T-cell clones recognizing the neoantigen” value was 12.5% and the “number of CD8^+ tumor-reactive T-cell clones recognizing the neoantigen” value came to 5. In addition, the “CD8^+ T cells recognizing the neoantigen in the total T cell population” value in the test on 135TIL amounted to 1.54%.

“LLKTRRILKCSYLYGFFLEPKSTKK [ANKIB1, MHC-II neoantigen of patient #136]”: the “T cell recognition, IFN-γ release” value in test [1] is reported as “capable of stimulating CD4^+ T cells for IFN-γ release”. For the same sequence, in the test on 136TIL, the “share in the total tumor-reactive CD4^+ T cell population” value was 21% and the “neoantigen-specific CD4^+ T cells in the total T cell population” value turned out to be 5.2%.

Values taken from US12565680B2, “Cancer neoantigens and their utilities in cancer vaccines and TCR-based cancer immunotherapy” (THE METHODIST HOSPITAL SYSTEM, priority 2018, dated 2026).
